From publication PMC6934184, “Selective DNA-PKcs inhibition extends the therapeutic index of localized radiotherapy and chemotherapy” (The Journal of Clinical Investigation, 2019)

Target: T1, MAP4K5 (KHS1) (Homo sapiens, UniProt Q9Y4K4)
T1 construct: purchased Thermo Fisher Scientific (Life Technologies) SelectScreen
Experiment: SelectScreen Z'LYTE
Type: biochemical
Method in brief: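 SelectScreen broad panel; activity (Z'LYTE, Adapta) plus binding formats. ATP: Km app for CSF1R Z'LYTE; 10 for CAMK1 Adapta. Readout = % per kinase.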

T1 sequence (Q9Y4K4 whole entry): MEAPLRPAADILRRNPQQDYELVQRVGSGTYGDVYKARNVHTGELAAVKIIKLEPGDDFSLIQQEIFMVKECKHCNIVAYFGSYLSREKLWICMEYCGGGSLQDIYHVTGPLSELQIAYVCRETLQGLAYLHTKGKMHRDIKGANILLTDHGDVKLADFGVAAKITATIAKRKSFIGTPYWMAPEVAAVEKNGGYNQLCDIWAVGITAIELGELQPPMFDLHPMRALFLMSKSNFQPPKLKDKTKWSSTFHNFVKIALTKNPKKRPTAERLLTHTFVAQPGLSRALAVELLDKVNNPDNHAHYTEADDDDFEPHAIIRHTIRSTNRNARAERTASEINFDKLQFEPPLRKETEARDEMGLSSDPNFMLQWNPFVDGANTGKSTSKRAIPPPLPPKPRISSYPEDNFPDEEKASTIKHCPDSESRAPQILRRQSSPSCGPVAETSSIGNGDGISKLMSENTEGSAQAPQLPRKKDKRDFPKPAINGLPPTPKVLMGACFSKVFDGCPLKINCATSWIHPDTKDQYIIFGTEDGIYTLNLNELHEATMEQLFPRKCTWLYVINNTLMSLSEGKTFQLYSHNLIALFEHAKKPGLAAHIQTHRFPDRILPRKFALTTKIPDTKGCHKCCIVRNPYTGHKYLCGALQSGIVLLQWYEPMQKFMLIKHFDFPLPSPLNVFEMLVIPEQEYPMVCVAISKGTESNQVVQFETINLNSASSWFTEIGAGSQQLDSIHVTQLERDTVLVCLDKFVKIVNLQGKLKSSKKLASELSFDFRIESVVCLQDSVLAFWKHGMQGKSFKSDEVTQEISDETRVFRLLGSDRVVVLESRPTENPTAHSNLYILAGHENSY

CN(C(=O)CN1CCOCC1)c1ccc2sc3c(-c4cccc5c(=O)cc(N6CC7CCC(C6)O7)oc45)cccc3c2c1 [NU5455]
inhibition at 1 µM: -2%
